Results as given in the RepoRT retention time repository (doi:10.1021/acs.analchem.1c00972).

Experiment: RP, Waters ACQUITY UPLC BEH C18, 100 × 1 mm, 1.7 µm, 50 °C, 0.3 mL/min, estimated dead time 0.17 min; A: water + 0.1% formic acid + 20 mM ammonium formate; B: methanol + 0.1% formic acid + 20 mM ammonium formate; gradient (min/%B) 0/0 15/100 21/100 22/0 30/0
Conditions: stereoisomer not certain

| Structure (SMILES) | LC retention time |
| --- | --- |
| CC(CCC(=O)O)C1CCC2C3C(O)CC4CC(O)CCC4(C)C3CCC12C (stereo unspecified) [Chenodeoxycholic acid] | 17.1 min |
| Cc1cc(Cl)ccc1N=CN(C)C [Chlordimeform] | 8.37 min |
| O=C(O)Cc1c(Cl)ccc(Cl)c1Cl [Chlorfenac] | 2.02 min |
| CC(C)OC(=O)Nc1cccc(Cl)c1 [Chlorpropham] | 14.4 min |
| COP(=O)(OC)Oc1nc(Cl)c(Cl)cc1Cl [Chlorpyrifos-methyl-oxon] | 13.7 min |
| CCOP(=O)(OCC)Oc1nc(Cl)c(Cl)cc1Cl [Chlorpyrifos-oxon] | 15.2 min |
| CCOP(=S)(OCC)Oc1nc(Cl)c(Cl)cc1Cl [Chlorpyriphos-ethyl] | 17.1 min |
| NS(=O)(=O)c1cc2c(cc1Cl)NC=NS2(=O)=O [Chlorthiazide] | 4.7 min |
| CC(C)CCCC(C)C1CCC2C3CC=C4CC(O)CCC4(C)C3CCC12C (stereo unspecified) [Cholesterol] | 21.4 min |
| CC(CCC(=O)O)C1CCC2C3C(O)CC4CC(O)CCC4(C)C3CC(O)C12C (stereo unspecified) [Cholic acid] | 16.1 min |
| Cc1cc(C2CCCCC2)n(O)c(=O)c1 [Ciclopirox] | 14.9 min |
| CC1OC(OC2CCC3(C=O)C4CCC5(C)C(C6=CC(=O)OC6)CCC5(O)C4CCC3(O)C2)C(O)C(O)C1O (stereo unspecified) [Convallatoxin] | 11.2 min |
| CCNc1nc(Cl)nc(NC(C)(C)C#N)n1 [Cyanazin] | 11.3 min |
| NC1CCCCC1 [Cyclohexylamine] | 4.9 min |
| O=P1(N(CCCl)CCCl)NCCCO1 (stereo unspecified) [Cyclophosphamide] | 10.7 min |
| CCNC(=O)NC(=O)C(C#N)=NOC [Cymoxanil] | 9.68 min |
| CCCCCCCCn1sc(Cl)c(Cl)c1=O [DCOIT] | 17 min |
| O=C(O)C1OC(Oc2ccc3c(=O)c(-c4ccc(O)cc4)coc3c2)C(O)C(O)C1O (stereo unspecified) [Daidzein_glucuronide] | 8.4 min |
| CCCCCCCCCC(=O)OC(CC(=O)[O-])C[N+](C)(C)C [Decanoyl-L-Carnitine] | 14.5 min |
| CCS(=O)(=O)CCSP(=O)(OC)OC [Demeton-S-methyl-sulfone] | 7.78 min |
| CCSCCSP(=O)(OC)OC [Demeton-S-methyl] | 11.8 min |
| CC(CCC(=O)O)C1CCC2C3CCC4CC(O)CCC4(C)C3CC(O)C12C (stereo unspecified) [Deoxycholic acid] | 17.1 min |

| Structure (SMILES) | LC retention time |
| --- | --- |
| CCNC(=O)C(C)Oc1cccc2ccccc12 (stereo unspecified) [Desethyl-napropamide] | 14 min |
| CCOP(=O)(OCC)Oc1cc(C)nc(C(C)C)n1 [Diazoxon / Diazinon-oxon] | 15.7 min |
| CCCCOc1cc(C(=O)NCCN(CC)CC)c2ccccc2n1 [Dibucaine] | 13 min |
| Cc1cc(C(C)(C)C)c(O)c(C(C)(C)C)c1 [Dibutylhydroxytoluene] | 17 min |
| CC(Oc1ccc(Oc2ccc(Cl)cc2Cl)cc1)C(=O)O (stereo unspecified) [Diclofop] | 14.3 min |
| O=C(NC1CCCCC1)NC1CCCCC1 [Dicyclohexylurea] | 14 min |
| CCCCCCCCCCCCOC(=O)c1ccccc1C(=O)OCCCCCCCCCCCC [Didodecylphthalate] | 21.7 min |
| CC12CCC3=C4CCC(=O)C=C4CCC3C1CCC2(O)CC#N (stereo unspecified) [Dienogest] | 12.6 min |
| CCOc1ccc(NC(=O)OC(C)C)cc1OCC [Diethofencarb] | 7.48 min |
| CCOP(=O)(O)OCC [Diethyl phopshate] | 16.3 min |
| COCCOCCO [Diethyleneglycolmonomethylether] | 5.03 min |
| O=C(O)c1cccnc1Oc1cccc(C(F)(F)F)c1 [Diflufenican-metabolite] | 13.2 min |
| COCCOCCOC [Diglyme] | 7.31 min |
| CCCCCCOC(=O)c1ccccc1C(=O)OCCCCCC [Dihexylphthalate] | 18.2 min |
| COc1ccc2c3c1OC1C(O)CCC4C(C2)N(C)CCC341 (stereo unspecified) [Dihydrocodein] | 6.74 min |
| CN(C)C(=O)Nc1ccc(-n2nc(C(C)(C)C)oc2=O)c(Cl)c1 [Dimefuron] | 13.6 min |
| COCC(C)N(C(=O)CS(=O)(=O)O)c1c(C)csc1C (stereo unspecified) [Dimethenamid-M 27 (ESA)] | 10.8 min |
| Cc1csc(C)c1NC(=O)CCl [Dimethenamid-N-dealkylation] | 10.2 min |
| COC(=O)c1ccccc1C(=O)OC [Dimethylphthalat DMP] | 11.2 min |
| CNC(=O)Oc1ccccc1C1OCCO1 [Dioxacarb] | 15.1 min |
| c1ccc(Oc2ccccc2)cc1 [Diphenylether] | 13.5 min |
| O=[P+](c1ccccc1)c1ccccc1 [Diphenylphosphine oxide] | 11.8 min |

| Structure (SMILES) | LC retention time |
| --- | --- |
| Cc1ccc(OP(=O)(Oc2ccccc2)Oc2ccccc2)cc1 [Diphenyltolyl phosphate] | 16.3 min |
| CCOP(=S)(OCC)SCCS(=O)CC (stereo unspecified) [Disulfoton-sulfoxide] | 12.7 min |
| CCOP(=S)(OCC)SCCSCC [Disulfoton] | 16 min |
| Cc1ccc(OP(=O)(Oc2ccccc2)Oc2ccc(C)cc2)cc1 [Ditolyl phenyl phosphate] | 14 min |
| CCCCCCCCCCCOC(=O)c1ccccc1C(=O)OCCCCCCCCCCC [Diundecylphthalate] | 21 min |
| O=C1CCCCCCCCCCCN1 [Dodecane-12-lactam] | 14 min |
| CC1CN(C2CCCCCCCCCCC2)CC(C)O1 (stereo unspecified) [Dodemorph] | 13.5 min |
| CC=C(C)C(=O)OC1CC[N+]2([O-])CC=C(COC(=O)C(O)(C(C)O)C(C)(C)O)C12 (stereo unspecified) [Echimidine N-oxide] | 9.37 min |
| CC12CCC3C(=CCc4cc(O)ccc43)C1CCC2=O (stereo unspecified) [Equilin] | 13.8 min |
| CCCCCCCCC=CCCCCCCCCCCCC(N)=O [Erucamide] | 19.6 min |
| O=P(O)(O)CCCl [Ethephon] | 2.01 min |
| CC1(C)C(=O)Oc2ccc(OS(C)(=O)=O)cc21 [Ethofumesate-2-keto] | 12 min |
| CCCSP(=O)(OCC)SCCC [Ethoprophos] | 15 min |
| OC(c1ccc(Cl)cc1)(c1cncnc1)c1ccccc1Cl (stereo unspecified) [Fenarimol] | 14.9 min |
| CC(C)(C)c1ccc(CCOc2ncnc3ccccc23)cc1 [Fenazaquin] | 17.8 min |
| CC(Cc1ccc(C(C)(C)C)cc1)CN1CCCCC1 (stereo unspecified) [Fenpropidin] | 13.8 min |
| COc1cc(OC)nc(NC(=O)NS(=O)(=O)c2ncccc2C(F)(F)F)n1 [Flazasulfuron] | 13.4 min |
| Cc1cc(C(F)(C(F)(F)F)C(F)(F)F)ccc1NC(=O)c1cccc(I)c1C(=O)NC(C)(C)CS(C)(=O)=O [Flubendiamide] | 15.4 min |
| O=C(O)c1ccccc1Nc1cccc(C(F)(F)F)c1 [Flufenamic acid] | 16.2 min |
| CC(=O)OCC(=O)C12OC(C)(C)OC1CC1C3CC(F)C4=CC(=O)C=CC4(C)C3(F)C(O)CC12C (stereo unspecified) [Fluocinonide] | 14.6 min |
| O=C(NCc1ncc(C(F)(F)F)cc1Cl)c1c(Cl)cccc1Cl [Fluopicolide] | 14.4 min |
| CNCCC(Oc1ccc(C(F)(F)F)cc1)c1ccccc1 (stereo unspecified) [Fluoxetine] | 13.2 min |
